Data on 1 compound can be found in article PMC6675120, “Potent and selective inhibitors for M32 metallocarboxypeptidases identified from high-throughput screening of anti-kinetoplastid chemical boxes” (PLoS Neglected Tropical Diseases, 2019).

In general, IC50 refers to the concentration that inhibits the measured activity by half. Broadly, the inhibition is how much of the control response was suppressed.

Where two headings read alike, the source gives them in different places.

For one data set, the target named is TcMCP-1 (Trypanosoma cruzi, UniProt Q6ZXC0). The data set can be described thus: Continuous fluorogenic (FRET) TcMCP-1 assay with Abz-LKFK(Dnp)-OH, primary and secondary screening. It counts as biochemical. More on the design: inhibition: dose or concentration left out as unconfirmed.
Data set [1] addresses T. cruzi sterol 14-α demethylase (CYP51). On the set-up: method as in https://pubchem.ncbi.nlm.nih.gov/compound/91800813. The conditions noted are these: ref https://pubchem.ncbi.nlm.nih.gov/compound/91800813; cited from earlier work.
A further data set relates to T. brucei. More on the design: method as in https://pubchem.ncbi.nlm.nih.gov/compound/91800813. The settings on record: ref https://pubchem.ncbi.nlm.nih.gov/compound/91800813; cited from earlier work.
The next data set concerns cruzipain. On the set-up: method as in PMID 28935948. The conditions noted are these: at 25 μM; cited from earlier work.
For a further data set, the system named is NIH 3T3. More on the design: method as in https://pubchem.ncbi.nlm.nih.gov/compound/91800813. The conditions noted are these: ref https://pubchem.ncbi.nlm.nih.gov/compound/91800813, read-out: cytotoxicity IC50; cited from earlier work.
A further data set concerns the target TbMCP-1 (Trypanosoma brucei, UniProt Q386R0). Description: Continuous fluorogenic (FRET) TbMCP-1 assay with Abz-RFFK(Dnp)-OH, primary and secondary screening. It counts as biochemical.
Another data set deals with L. donovani. On the set-up: method as in https://pubchem.ncbi.nlm.nih.gov/compound/91800813. The settings on record: ref https://pubchem.ncbi.nlm.nih.gov/compound/91800813; cited from earlier work.
The test system of a further data set is T. cruzi. More on the design: method as in https://pubchem.ncbi.nlm.nih.gov/compound/91800813. The conditions noted are these: ref https://pubchem.ncbi.nlm.nih.gov/compound/91800813; cited from earlier work.
Setting [2] is: four-parameter Hill fit of dose-response curve.
[3] abbreviates: secondary (31,5 µM) / primary (25 µM) inhibition.

TcMCP-1, sequence (Q6ZXC0 entry or part of it): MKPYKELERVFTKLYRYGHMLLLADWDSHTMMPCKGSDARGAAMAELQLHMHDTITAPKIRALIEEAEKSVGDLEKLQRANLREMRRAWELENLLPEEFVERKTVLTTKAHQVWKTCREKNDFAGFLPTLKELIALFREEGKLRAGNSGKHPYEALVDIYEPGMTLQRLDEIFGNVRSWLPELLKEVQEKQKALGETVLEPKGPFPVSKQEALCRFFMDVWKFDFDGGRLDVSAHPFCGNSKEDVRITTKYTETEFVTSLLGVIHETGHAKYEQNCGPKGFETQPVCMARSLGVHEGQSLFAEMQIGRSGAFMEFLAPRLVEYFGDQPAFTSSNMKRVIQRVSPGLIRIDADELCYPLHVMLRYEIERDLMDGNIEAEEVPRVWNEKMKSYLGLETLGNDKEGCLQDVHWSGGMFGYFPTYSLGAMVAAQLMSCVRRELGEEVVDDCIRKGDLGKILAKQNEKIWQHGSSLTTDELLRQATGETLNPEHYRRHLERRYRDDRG
TbMCP-1, sequence (Q386R0 entry or part of it): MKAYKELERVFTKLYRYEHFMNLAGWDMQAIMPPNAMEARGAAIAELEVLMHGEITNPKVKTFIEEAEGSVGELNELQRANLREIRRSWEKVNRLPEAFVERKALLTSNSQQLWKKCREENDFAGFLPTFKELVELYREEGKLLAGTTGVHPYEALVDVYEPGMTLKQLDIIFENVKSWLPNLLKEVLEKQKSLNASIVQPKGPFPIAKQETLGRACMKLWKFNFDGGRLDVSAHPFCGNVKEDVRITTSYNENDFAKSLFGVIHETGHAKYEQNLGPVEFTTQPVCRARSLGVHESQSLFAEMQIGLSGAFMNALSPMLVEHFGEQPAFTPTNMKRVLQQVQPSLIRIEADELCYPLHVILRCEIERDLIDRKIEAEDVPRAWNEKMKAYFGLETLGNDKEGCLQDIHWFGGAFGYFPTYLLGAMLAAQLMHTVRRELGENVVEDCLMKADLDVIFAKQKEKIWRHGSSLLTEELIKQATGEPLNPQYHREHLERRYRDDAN

For the compound `N#Cc1ccc(S(=O)(=O)N2CCN(Cc3cccc(-c4ccncc4)c3)CC2)cc1` [TCMDC-143620], the IC50 against TcMCP-1 was 694 nM; at TcMCP-1 (secondary screening, two-fold dilutions 7,5 pM to 62,5 μM, KM/[S] ~ 1, no replicates) it was no more than 10000 nM; in data set [1], 79 nM; with NIH 3T3 it was 13000 nM. The “TcMCP-1 Hill Slope” value on TcMCP-1 (setting [2]) is -1,06. Also, the inhibition on TcMCP-1 (read-out: TcMCP-1 Secondary screening Inhibition (%)) was 96.7%; at TbMCP-1 (single inhibitor concentration 31,5 µM) it was 96.6%. The “TcMCP-1 2º/1º ratio” value at TcMCP-1 (setting [3]) is 1,18. Further, the inhibition at 25 µM against TcMCP-1 (single inhibitor concentration 25 µM) is 82.1%; at TbMCP-1 (single inhibitor concentration 25 µM, read-out: TbMCP-1 Primary screening Inhibition (%)), 45.2%. Also, in the data set on T. brucei, the “activity on T. brucei” value was “moderate but measurable activity”. The cruzipain inhibition in the data set with cruzipain was ~ 7,5%. Moreover, the “potency on TbMCP-1 lower than on TcMCP-1” value at TbMCP-1 (TbMCP-1 vs TcMCP-1) was ~ 7 fold. Moreover, the “TbMCP-1 Hill Slope” value at TbMCP-1 (setting [2]) is -1,461. Further, on TbMCP-1 (setting [3]), the “TbMCP-1 2º/1º ratio” value was 2,14. Besides, the “activity on L. donovani” value in the data set on L. donovani is given as “moderate but measurable activity”. Also, in the data set with T. cruzi, the “activity against T. cruzi in culture” value was “potent activity”.
